Data reported in ChEMBL document CHEMBL5500384, “New synergistic benzoquinone scaffolds as inhibitors of mycobacterial cytochrome bc1 complex to treat multi-drug resistant tuberculosis” (Eur J Med Chem, 2024).
≈ marks a conversion by molar mass, not a printed value.

Tests used:
[1] = Cytotoxicity against african green monkey Vero cells assessed as cell viability at 50 ug/ml by MTT assay; format: toxicity, cell-based; conditions: chlorocebus sabaeus, at 50 µg/mL, read-out: Activity
[2] = Acute toxicity in Albino mouse assessed as change in RBC count measured per million cells at 50 to 2000 mg/kg, po measured after 14 days (reference value: 9.15 microL); format: organism-based, Erythrocyte; conditions: in vivo, 336 h, dose 50-2000 mg/kg, time 14 day
[3] = Acute toxicity in Albino mouse assessed as change in ALP level at 50 to 2000 mg/kg, po measured after 14 days (reference value: 28 IU/L); format: organism-based; conditions: in vivo, 336 h, dose 50-2000 mg/kg, time 14 day
[4] = Acute toxicity in Albino mouse assessed as change in ESR at 50 to 2000 mg/kg, po measured after 14 days (reference value: 10 millimeter); format: organism-based; conditions: in vivo, 336 h, dose 50-2000 mg/kg, time 14 day
[5] = Hepatotoxicity in Albino mouse assessed as change in hepatic artery at 50 to 2000 mg/kg, po measured after 14 days; format: toxicity, organism-based, Liver; conditions: in vivo, 336 h, dose 50-2000 mg/kg, time 14 day
[6] = Acute toxicity in Albino mouse assessed as change in LDH level at 50 to 2000 mg/kg, po measured after 14 days (reference value: 1052 IU/L); format: organism-based; conditions: in vivo, 336 h, dose 50-2000 mg/kg, time 14 day
[7] = Cytotoxicity against african green monkey Vero cells assessed as cell viability at 6.25 ug/ml by MTT assay; format: toxicity, cell-based; conditions: chlorocebus sabaeus, at 6.25 µg/mL, read-out: Activity
[8] = Acute toxicity in Albino mouse assessed as change in monocytes at 50 to 2000 mg/kg, po measured after 14 days (reference value: 1%); format: organism-based; conditions: in vivo, 336 h, dose 50-2000 mg/kg, time 14 day
[9] = Cytotoxicity against african green monkey Vero cells by MTT assay; format: toxicity, cell-based; conditions: chlorocebus sabaeus
[10] = Acute toxicity in Albino mouse assessed as change in platelet count at 50 to 2000 mg/kg, po measured after 14 days (reference value: 3.24 mm3); format: organism-based; design: unit not given here; conditions: in vivo, 336 h, dose 50-2000 mg/kg, time 14 day
[11] = Hepatotoxicity in Albino mouse assessed as change in portal tracks at 50 to 2000 mg/kg, po measured after 14 days; format: toxicity, organism-based; conditions: in vivo, 336 h, dose 50-2000 mg/kg, time 14 day
[12] = Cytotoxicity against african green monkey Vero cells assessed as cell viability at 3.125 ug/ml by MTT assay; format: toxicity, cell-based; conditions: chlorocebus sabaeus, at 3.125 µg/mL, read-out: Activity
[13] = Acute toxicity in po dosed Albino mouse assessed as mortality after 14 days; format: organism-based; conditions: in vivo, time 14 day
[14] = Hepatotoxicity in Albino mouse assessed as change in central vein at 50 to 2000 mg/kg, po measured after 14 days; format: toxicity, organism-based; conditions: in vivo, 336 h, dose 50-2000 mg/kg, time 14 day
[15] = Acute toxicity in Albino mouse assessed as mortality at 2000 mg/kg, po after 2 to 4 hrs; format: organism-based; conditions: in vivo, time 2-4 hrs
[16] = Pulmonary toxicity in Albino mouse assessed as change in bronchi structure at 50 to 2000 mg/kg, po measured after 14 days; format: organism-based; conditions: in vivo, 336 h, dose 50-2000 mg/kg, time 14 day
[17] = Acute toxicity in Albino mouse assessed as change in lymphocytes at 50 to 2000 mg/kg, po measured after 14 days (reference value: 21%); format: organism-based; conditions: in vivo, 336 h, dose 50-2000 mg/kg, time 14 day
[18] = Acute toxicity in Albino mouse assessed as change in SGOT count at 50 to 2000 mg/kg, po measured after 14 days (reference value: 42 IU/L); format: organism-based; conditions: in vivo, 336 h, dose 50-2000 mg/kg, time 14 day
[19] = Renal toxicity in Albino mouse assessed as change in distal convoluted tubules at 50 to 2000 mg/kg, po measured after 14 days; format: organism-based; conditions: in vivo, 336 h, dose 50-2000 mg/kg, time 14 day
[20] = Cytotoxicity against african green monkey Vero cells assessed as cell viability at 100 ug/ml by MTT assay; format: toxicity, cell-based; conditions: chlorocebus sabaeus, at 100 µg/mL, read-out: Activity
[21] = Acute toxicity in Albino mouse assessed as change in eosinophils at 50 to 2000 mg/kg, po measured after 14 days (reference value: 3%); format: organism-based; conditions: in vivo, 336 h, dose 50-2000 mg/kg, time 14 day
[22] = Renal toxicity in Albino mouse assessed as change in renal tubules at 50 to 2000 mg/kg, po measured after 14 days; format: organism-based; conditions: in vivo, 336 h, dose 50-2000 mg/kg, time 14 day
[23] = Renal toxicity in Albino mouse assessed as change in proximal convoluted tubules at 50 to 2000 mg/kg, po measured after 14 days; format: organism-based; conditions: in vivo, 336 h, dose 50-2000 mg/kg, time 14 day
[24] = Renal toxicity in Albino mouse assessed as change in renal corpuscles at 50 to 2000 mg/kg, po measured after 14 days; format: organism-based; conditions: in vivo, 336 h, dose 50-2000 mg/kg, time 14 day
[25] = Acute toxicity in Albino mouse assessed as change in SGPT count at 50 to 2000 mg/kg, po measured after 14 days (reference value: 52 IU/L); format: organism-based; conditions: in vivo, 336 h, dose 50-2000 mg/kg, time 14 day
[26] = Cytotoxicity against african green monkey Vero cells assessed as cell viability at 25 ug/ml by MTT assay; format: toxicity, cell-based; conditions: chlorocebus sabaeus, at 25 µg/mL, read-out: Activity
[27] = Acute toxicity in Albino mouse assessed as change in hemoglobin level at 50 to 2000 mg/kg, po measured after 14 days (reference value: 12.8 g/dl); format: organism-based; conditions: in vivo, 336 h, dose 50-2000 mg/kg, time 14 day
[28] = Renal toxicity in Albino mouse assessed as change in Bowman's capsule at 50 to 2000 mg/kg, po measured after 14 days; format: organism-based; conditions: in vivo, 336 h, dose 50-2000 mg/kg, time 14 day
[29] = Acute toxicity in Albino mouse assessed as change in serum creatine level at 50 to 2000 mg/kg, po measured after 14 days (reference value: 0.9 mg/dl); format: organism-based; conditions: in vivo, 336 h, dose 50-2000 mg/kg, time 14 day
[30] = Renal toxicity in Albino mouse assessed as extravasation of RBC at 50 to 2000 mg/kg, po measured after 14 days; format: organism-based, Erythrocyte; conditions: in vivo, 336 h, dose 50-2000 mg/kg, time 14 day
[31] = Pulmonary toxicity in Albino mouse assessed as appearance of goblet cells at 50 to 2000 mg/kg, po measured after 14 days; format: organism-based; conditions: in vivo, 336 h, dose 50-2000 mg/kg, time 14 day
[32] = Pulmonary toxicity in Albino mouse assessed as appearance of cilia at 50 to 2000 mg/kg, po measured after 14 days; format: organism-based; conditions: in vivo, 336 h, dose 50-2000 mg/kg, time 14 day
[33] = Renal toxicity in Albino mouse assessed as structural absorbability abnormalities at 50 to 2000 mg/kg, po measured after 14 days; format: organism-based; conditions: in vivo, 336 h, dose 50-2000 mg/kg, time 14 day
[34] = Renal toxicity in Albino mouse assessed as change in tubular capillaries at 50 to 2000 mg/kg, po measured after 14 days; format: organism-based; conditions: in vivo, 336 h, dose 50-2000 mg/kg, time 14 day
[35] = Cytotoxicity against african green monkey Vero cells assessed as cell viability at 12.5 ug/ml by MTT assay; format: toxicity, cell-based; conditions: chlorocebus sabaeus, at 12.5 µg/mL, read-out: Activity
[36] = Pulmonary toxicity in Albino mouse assessed as change in alveolar sacs at 50 to 2000 mg/kg, po measured after 14 days; format: organism-based; conditions: in vivo, 336 h, dose 50-2000 mg/kg, time 14 day
[37] = Pulmonary toxicity in Albino mouse assessed as change in squamous pneumocytes at 50 to 2000 mg/kg, po measured after 14 days; format: organism-based; conditions: in vivo, 336 h, dose 50-2000 mg/kg, time 14 day
[38] = Hepatotoxicity in Albino mouse assessed as change in bile duct at 50 to 2000 mg/kg, po measured after 14 days; format: toxicity, organism-based, Liver; conditions: in vivo, 336 h, dose 50-2000 mg/kg, time 14 day
[39] = Hepatotoxicity in Albino mouse assessed as change in portal vein at 50 to 2000 mg/kg, po measured after 14 days; format: toxicity, organism-based; conditions: in vivo, 336 h, dose 50-2000 mg/kg, time 14 day
[40] = Acute toxicity in Albino mouse assessed as change in serum urea level at 50 to 2000 mg/kg, po measured after 14 days (reference value: 46 mg/dl); format: organism-based; conditions: in vivo, 336 h, dose 50-2000 mg/kg, time 14 day
[41] = Acute toxicity in Albino mouse assessed as change in total leucocyte count at 50 to 2000 mg/kg, po measured after 14 days (reference value: 7400 mm3); format: organism-based; conditions: in vivo, 336 h, dose 50-2000 mg/kg, time 14 day
[42] = Acute toxicity in Albino mouse assessed as change in neutrophils at 50 to 2000 mg/kg, po measured after 14 days (reference value: 75%); format: organism-based; conditions: in vivo, 336 h, dose 50-2000 mg/kg, time 14 day
[43] = Pulmonary toxicity in Albino mouse assessed as change in alveoli structure at 50 to 2000 mg/kg, po measured after 14 days; format: organism-based; conditions: in vivo, 336 h, dose 50-2000 mg/kg, time 14 day
[44] = system: Mycobacterium tuberculosis; test: Antitubercular activity against Mycobacterium tuberculosis H37Rv incubated for 5 days by microtiter plate method; format: functional; conditions: 120 h, time 5 day
[45] = Acute toxicity in Albino mouse assessed as mortality at 300 mg/kg, po after 14 days; format: organism-based; conditions: in vivo, 336 h, time 14 day
[46] = Hepatotoxicity in Albino mouse assessed as change in hepatocytes at 50 to 2000 mg/kg, po measured after 14 days; format: toxicity, organism-based; conditions: in vivo, 336 h, dose 50-2000 mg/kg, time 14 day

Compound: CCOc1cc(C2C(Cl)C(=O)N2C2=C(Cl)C(=O)c3ccccc3C2=O)ccc1O (stereo unspecified)
- viability at 50 ug/ml [1]: 30.6%
- Activity [2]: 8.95
- Activity [3]: 832.75 IU/L
- Activity [4]: 11 millimeter/hr
- Activity [5]: Non-Toxic
- Activity [6]: 470.21 IU/L
- viability at 6.25 ug/ml [7]: 100%
- Activity [8]: 1%
- Activity [9]: Dose-Dependent Effect
- Activity [10]: 4.9
- Activity [11]: Non-Toxic
- viability at 3.125 ug/ml [12]: 100%
- LD50 at 336 h [13]: 300 mg/kg
- Activity [14]: Non-Toxic
- Activity [15]: Toxic
- Activity [16]: Non-Toxic
- Activity [17]: 34%
- Activity [18]: 168.67 IU/L
- Activity [19]: Non-Toxic
- viability at 100 ug/ml [20]: 10.4%
- Activity [21]: 3%
- Activity [22]: Non-Toxic
- Activity [23]: Non-Toxic
- Activity [24]: Non-Toxic
- Activity [25]: 75.33 IU/L
- viability at 25 ug/ml [26]: 67.8%
- Activity [27]: 12.5 g/dL
- Activity [28]: Non-Toxic
- Activity [29]: < 0.3 mg/dL
- Activity [30]: Non-Toxic
- Activity [31]: Non-Toxic
- Activity [32]: Non-Toxic
- Activity [33]: Non-Toxic
- Activity [34]: Non-Toxic
- viability at 12.5 ug/ml [35]: 100%
- Activity [36]: Non-Toxic
- Activity [37]: Non-Toxic
- Activity [38]: Non-Toxic
- Activity [39]: Non-Toxic
- Activity [40]: 35.72 mg/dL
- Activity [41]: 8200 mm3
- Activity [42]: 66%
- Activity [43]: Non-Toxic
- MIC [44]: 14.5 µM (≈ 6.25 µg/mL)
- Activity [45]: Non-Toxic
- Activity [46]: Non-Toxic
